# Results taken from patent publication US6951647B2, “T cell binding ligand peptides and method of inducing a cellular immune response” (Cel-Sci Corporation, priority 2001, dated 2005).
# Values joined by “and” are separate entries in the source; they are usually repeats but may differ in a detail not shown here. Identical values can stand only once.
# Key:
# modified HGP-30 = test: ELISA antibody screening of sera of immunized mice on modified HGP-30; type: in vivo; conditions: for ELISA test antigen Modified HGP-30: day 42 test bleeding
# Protocol: Mice in groups (5-10 animals per group as designated) are immunized with the LEAPS constructs (25 μg/dose) of SEQ ID NO's:37, 38 and 39, in 0.2 mL emulsified 1:1 with adjuvant (Seppic's ISA-51 or Corixa's microfluidized MPL S/E) on days 0 and 14. Mice are evaluated by Delayed Type of Hypersensitivity (DTH) by inoculation on day 26 with 20 μl of a solution of saline or mH (SEQ ID NO:6) (25 μg in saline) in the left or right ear respectively. The DTH response is determined by measurement of the ear thickness 48 hours later and expressed as increase in ear thickness (mm) of experimental ear compared to that of the control ear. Individual animal sera are collected for measurement of antibody on day 28, 42, 63 and 77. Sera from individual animals and group pools are evaluated for specific anti-mH antibody, for total antibody, IgG1, IgG2a and IgG3 antibody isotype and cross clade titer at selected time points as indicated. […]
# C Clade = test: ELISA cross clade recognition by sera of immunized mice, C Clade; type: in vivo; conditions: for ELISA test antigen C Clade: day 42 test bleeding
# Protocol: (§1) Mice in groups (5-10 animals per group as designated) are immunized with the LEAPS constructs (25 μg/dose) of SEQ ID NO's:37, 38 and 39, in 0.2 mL emulsified 1:1 with adjuvant (Seppic's ISA-51 or Corixa's microfluidized MPL S/E) on days 0 and 14. Mice are evaluated by Delayed Type of Hypersensitivity (DTH) by inoculation on day 26 with 20 μl of a solution of saline or mH (SEQ ID NO:6) (25 μg in saline) in the left or right ear respectively. The DTH response is determined by measurement of the ear thickness 48 hours later and expressed as increase in ear thickness (mm) of experimental ear compared to that of the control ear. Individual animal sera are collected for measurement of antibody on day 28, 42, 63 and 77. Sera from individual animals and group pools are evaluated for specific anti-mH antibody, for total antibody, IgG1, IgG2a and IgG3 antibody isotype and cross clade titer at selected time points as indicated.
# (§2) The mouse sera for the ELISA was used at a dilution of 1:200. Again, clearly, the construct provides higher signals indicative of higher levels of the antibodies that recognized other clades besides the parental one (Clade B) of mH.
# (§3) A cross clade analysis for pools of day 42 test bleedings from the same groups as used in Table 3, were obtained and the results are shown in Table 4.
# D Clade [1] = test: ELISA cross clade recognition by sera of immunized mice, D Clade; type: in vivo; conditions: for ELISA test antigen D Clade: day 42 test bleeding, Group Average
# Protocol: as §1, §2, §3
# E Clade [2] = test: ELISA cross clade recognition by sera of immunized mice, E Clade; type: in vivo; conditions: for ELISA test antigen E Clade: day 42 test bleeding, Group Average
# Protocol: as §1, §2, §3
# B Clade = test: ELISA cross clade recognition by sera of immunized mice, B Clade; type: in vivo; conditions: for ELISA test antigen B Clade: day 42 test bleeding
# Protocol: as §1, §2, §3
# Peptide G [3] = test: Specificity analysis for the TCBL carrier, ELISA plates coated with Peptide G; type: in vivo, Mice; conditions: individual animal
# E Clade [4] = test: ELISA cross clade recognition by sera of immunized mice, E Clade; type: in vivo; conditions: day 42 test bleeding, individual mouse
# Peptide G [5] = test: Specificity analysis for the TCBL carrier, ELISA plates coated with Peptide G; type: in vivo, Mice; conditions: for A 490 1:200 dilution on plates coated with Peptide G: Average
# Protocol: as §1
# A specificity analysis for the TCBL or KLH carrier for pools of day 42 test bleedings from the G-mH, G′-mH and mH/KLH, using either MPL S/E or ISA51 as adjuvant, was carried out (all sera assayed at a dilution of 1:200) and the results are shown in Table 5. […] This observation is especially significant for vaccines used on a repetitive basis, such as, either a vaccine that requires more frequent intervals between boosters for maintenance of cellular reactivity or as a therapeutic vaccine.
# D Clade [6] = test: ELISA cross clade recognition by sera of immunized mice, D Clade; type: in vivo; conditions: day 42 test bleeding, individual mouse
# [7] = tested on: modified HGP-30 (mH, SEQ ID NO:6); test: Isotype analysis (ELISA) of anti-mH antibody in sera of immunized mice; type: in vivo; design: IgG1 / IgG2a / IgG2b / IgG3: unit not given here; conditions: for IgG1 / IgG2a / IgG2b / IgG3: ELISA signal, day 42 test bleeding
# Protocol: as §1
# The results of an isotype analysis of day 42 test bleedings with G′-mH (SEQ ID NO:37), G-mH (SEQ ID NO:38), J-mH (SEQ ID NO:39), F-mH (SEQ ID NO:40) and F-HGP-30 (SEQ ID NO:41), are shown in Table 1.
# An isotype analysis for pools of day 28 test bleedings G-mH, G′-mH and m-HGP-30/KLH using either MPL S/E or ISA51 as adjuvant, are shown in Table 3.
# [8] = day 63 test bleeding, sera 1:200, individual mouse
# [9] = day 28 pool, group without '(with MPL)' (ISA51)
substance,measurement,setting,value
"NGQ EEK AGV VST GLI GGG ATL YSV HQR IDV KDT KEA LEK IEE EQN KS (DGQEEKAGVVSTGLIGGGEAQNTTYL) [SEQ ID NO: 58, Peptide G linked by GGG spacer to modified HGP-30 (mH)]",A 490 1:200 dilution on plates coated with modified HGP-30,"modified HGP-30; day 42, first set of groups (animals 4637-4648, 4674-4678), individual animal",0.257 A 490 and 0.571 A 490 and 0.065 A 490 and 0.392 A 490 and 1.008 A 490 and 0.021 A 490
same,A 490 1:200 dilution on plates coated with modified HGP-30,"modified HGP-30; day 42, first set of groups, Average",0.386 A 490
same,A 490 1:200 dilution on plates coated with modified HGP-30,"modified HGP-30; day 42, second set of groups (animals 4662-4673, 4679-4683), individual animal",0.051 A 490 and 0.052 A 490 and 1.102 A 490 and 0.005 A 490 and 0.000 A 490 (2×)
same,A 490 1:200 dilution on plates coated with modified HGP-30,"modified HGP-30; day 42, second set of groups, Average",0.202 A 490
same,ELISA test antigen Modified HGP-30,"modified HGP-30; group (A), Group Average",0.576
same,ELISA test antigen Modified HGP-30,"modified HGP-30; group (A), individual mouse",0.470 and 1.103 and 0.046 and 0.390 and 1.297 and 0.153
same,ELISA test antigen Modified HGP-30,"modified HGP-30; group (B), Group Average",0.394
same,ELISA test antigen Modified HGP-30,"modified HGP-30; group (B), individual mouse",0.187 and 0.188 and 1.848 and 0.145 and 0.000 (2×)
same,ELISA signal on modified HGP-30,modified HGP-30; [8],1.831 and 2.453 and 2.530 and 1.740 and 0.398 and 1.240 and 2.665 and 1.014 and 0.444 and 0.304
same,ELISA test antigen C Clade,"C Clade; group (A), Group Average",0.018
same,ELISA test antigen C Clade,"C Clade; group (A), individual mouse",0.000 (4×) and 0.004 and 0.104
same,ELISA test antigen C Clade,"C Clade; group (B), Group Average",0.009
same,ELISA test antigen C Clade,"C Clade; group (B), individual mouse",0.003 (2×) and 0.000 (3×) and 0.050
same,ELISA signal on C Clade,C Clade; [8],0.125 and 0.359 and 0.238 and 0.047 and 0.005 and 0.076 and 0.643 and 0.000 (3×)
same,ELISA test antigen D Clade,D Clade [1]; group (A),0.000
same,ELISA test antigen D Clade,D Clade [1]; group (B),0.002
same,ELISA signal on D Clade,D Clade [1]; [8],0.025 and 0.646 and 0.000 (6×) and 0.001 and 0.016
same,ELISA test antigen E Clade,E Clade [2]; group (A),0.000
same,ELISA test antigen E Clade,E Clade [2]; group (B),0.000
same,ELISA signal on E Clade,E Clade [2]; [8],0.000 (8×) and 0.016 and 0.504
same,ELISA test antigen B Clade,"B Clade; group (A), Group Average",0.005
same,ELISA test antigen B Clade,"B Clade; group (A), individual mouse",0.000 (5×) and 0.028
same,ELISA test antigen B Clade,"B Clade; group (B), Group Average",0.022
same,ELISA test antigen B Clade,"B Clade; group (B), individual mouse",0.000 (3×) and 0.006 and 0.079 and 0.046
same,ELISA signal on B Clade,B Clade; [8],0.000 (6×) and 0.316 and 0.148 and 0.006 and 0.230
same,A 490 1:200 dilution on plates coated with Peptide G,"Peptide G [3]; day 42, first set of groups (animals 4637-4648, 4674-4678)",0.195 A 490 and 0.122 A 490 and 0.092 A 490 and 0.088 A 490 and 0.047 A 490
same,A 490 1:200 dilution on plates coated with Peptide G,"Peptide G [3]; day 42, second set of groups (animals 4662-4673, 4679-4683)",0.024 A 490 and 0.044 A 490 and 0.062 A 490 and 0.033 A 490 and 0.060 A 490 and 0.151 A 490
same,ELISA test antigen E Clade,E Clade [4]; group (A),0.000
same,ELISA test antigen E Clade,E Clade [4]; group (B),0.000
same,A 490 1:200 dilution on plates coated with Peptide G,"Peptide G [5]; day 42, first set of groups",0.099 A 490
same,A 490 1:200 dilution on plates coated with Peptide G,"Peptide G [5]; day 42, second set of groups",0.062 A 490
same,Reactivity toward the delivery vehicle TCBL,"Peptide G [5]; day 42 sera at 1:200, Table 5, in words",minimal reactivity
same,ELISA test antigen D Clade,D Clade [6]; group (A),0.000
same,ELISA test antigen D Clade,D Clade [6]; group (B),0.005 and 0.006 and 0.000 (4×)
same,IgG1,[7]; group Average,1.400
same,IgG2a,[7]; group Average,0.367
same,IgG2b,[7]; group Average,0.478
same,IgG3,[7]; group Average,0.531
same,IgG1,[7]; individual mouse,1.810 and 2.606 and 1.738 and 0.123 and 1.649 and 2.651 and 0.562 and 0.431 and 0.042 and 2.391
same,IgG2a,[7]; individual mouse,0.152 and 1.386 and 0.074 and 0.005 and 0.129 and 1.619 and 0.047 and 0.031 and 0.025 and 0.200
same,IgG2b,[7]; individual mouse,0.223 and 2.038 and 0.464 and 0.017 and 0.025 and 1.613 and 0.059 and 0.038 and 0.183 and 0.123
same,IgG3,[7]; individual mouse,0.388 and 1.817 and 0.033 and −0.013 and 0.152 and 2.378 and 0.000 and 0.106 and 0.089 and 0.358
same,"Ig1, serial dilution 1:200",[7]; [9],0.507
same,"Ig1, serial dilution 1:800",[7]; [9],0.173
same,"Ig1, serial dilution 1:3200",[7]; [9],0.025
